US8153589B2, “JNK3 as a target for the treatment of angiogenesis-related diseases” (The University of North Carolina at Chapel Hill, priority 2009, dated 2012)
Like-named read-outs stand apart in the source and are kept apart here.

What was measured:
MKP7 [1] = assay: Biotin switch assay, MKP7 S-nitrosylation by NO donors in lysates of transfected HEK293T cells; assay type: biochemical
Procedure: (§1) Experiments were performed following the methods previously described by Dr. Stamler's laboratory (39). Cell lysates containing Flag or Myc-tagged MKP7 protein were treated with the indicated concentrations of GSNO followed by the addition of 2 volumes of HEN buffer and freshly prepared S-methyl methanethiosulfonate (10% v/v in N,N-dimethylformamide) and SDS (25% v/v) to final concentrations of 0.1 and 2.5%, respectively. Following frequent vortexing at 50° C. for 1 hour, proteins were precipitated with 3 volumes of acetone at −20° C. for 30 min. The proteins were recovered by centrifugation at 5,000×g for 5 min, followed by gentle rinsing of the pellet with 3×1 ml acetone. The pellets were then resuspended in 240 μl of HEN buffer containing 1% SDS. The resuspended protein was precipitated, rinsed and resuspended once more. For labeling, the blocked samples were mixed with 0.1 volume of biotin-HPDP (2.5 mg/ml in Me2SO) and 0.1 volume of HEN (control) or freshly prepared sodium Ascorbic acid in HEN buffer. Labeling reactions were performed in the dark at room temperature for 1 h unless otherwise indicated. To detect an MKP7 SNO protein from cells or lysates, the labeling reaction was acetone-precipitated as previously described. The washed pellet was resuspended in 250 μl of HEN/10 (HEN diluted 10-fold into H2O) containing 1% SDS, followed by addition of 750 μl of neutralization buffer (25 mM HEPES, 100 mM NaCl, 1 mM ETDA, 1% Triton X-100, pH 7.5). This material was incubated overnight at 4° C. with 40 μl of streptavidin-agarose beads. The beads were washed with 3×1 ml of wash buffer (neutralization buffer+500 mM NaCl) and 2×1 ml of neutralization buffer. The dried beads were eluted with 50 μl of HEN/10+1%-mercaptoethanol. The eluted mixture was then analyzed by SDS-PAGE, followed by immunoblotting with anti-Flag-HRP (1:5000) or antibodies.
(§2) The preceding experiments indicate that eNOS and its downstream effector JNK3 are required for SDF-1α-induced endothelial cell migration. However, the molecular mechanisms of eNOS-dependent regulation of JNK3 activity are not intuitive. In the course of exploring various potential regulatory mechanisms, we considered the possibility that regulation of JNK3 by eNOS was determined by suppression of dephosphorylation activities. When cells were incubated with sodium orthovanadate, an inhibitor of protein tyrosine and dual-specificity protein phosphatases, JNK phosphorylation increased both under basal conditions and, most prominently, after SDF-1α treatment (FIG. 3A). […] MKP7, a member of the dual-specificity family of protein phosphatases, interacts with the JNK3 scaffold protein β-arrestin2 (25). Located within the N-terminal catalytic domain of MKP7, the Cys^244 residue is highly sensitive to oxidation due to its low pKa and this oxidation is required for decreased MKP7 activity and sustained activation of JNK3 under certain conditions (26). […] MKP7 S-nitrosylation was also detected with another NO donor-DETA NONOate; the addition of DTT blocked its nitrosylation (data not shown). To further explore the nitrosylation of MKP7 by NO donors, SNOs in MKP7 were replaced with biotin (biotin switch), and peptides generated by trypsinization were purified by avidin chromatography and analyzed by MALDI-TOF and ESI-MS/MS. […]

MKP7 [2] = assay type: biochemical
Procedure: (§4) Flag-MKP7 protein was prepared from the cells transfected with Flag-MKP7 by immunoprecipitation using Flag beads (Sigma). The precipitate was washed twice with lysis buffer containing high salt (1 M NaCl) followed by 2 washes with the reaction buffer. In vitro phosphatase reactions were carried out at 37° C. for 1 hour in I.V.P.A buffer (20 mM Tris⊕HCl, pH7.0, 0.1 mM MgCl2, 1 mM MnCl2, 1 ┌g/┌1 BSA, 1 mM DTT in reduced samples) with 25 ng active JNK3 purified protein (Upstate). The reaction was stopped by the addition of 2× loading buffer followed by western blotting analysis with phospho-specific JNK and JNK antibodies.
(§5) To determine whether this S-nitrosylation event affected MKP7 activity, we performed an in vitro phosphatase activity analysis using activated JNK3 protein in a reaction with MKP7-concentrated cell lysates. […] The activities of these mutants were also evaluated using an in vitro phosphatase assay.

MKP7 [3] = target: T1, MKP7 (Homo sapiens, UniProt Q9BY84, C244S); assay type: biochemical
T1 construct: the mutants of full-length MKP7, MKP7-C244S and MKP7-C244A; expressed in transfected cells; host or cells: HEK293T
T1 sequence (Q9BY84 1-317 C244S): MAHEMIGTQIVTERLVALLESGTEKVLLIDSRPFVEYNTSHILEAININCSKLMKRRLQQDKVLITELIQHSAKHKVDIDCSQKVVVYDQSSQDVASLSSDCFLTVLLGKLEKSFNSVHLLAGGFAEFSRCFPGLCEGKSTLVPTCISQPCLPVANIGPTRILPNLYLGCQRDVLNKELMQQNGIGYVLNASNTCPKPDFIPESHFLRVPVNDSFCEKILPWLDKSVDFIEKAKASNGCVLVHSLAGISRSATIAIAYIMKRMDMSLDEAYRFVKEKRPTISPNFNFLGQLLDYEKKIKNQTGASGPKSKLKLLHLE
Procedure: as §4, §5

MKP7 [4] = target: T1, MKP7; assay: Biotin switch assay, MKP7 S-nitrosylation by NO donors in lysates of transfected HEK293T cells; assay type: biochemical
Procedure: as §1, §2

BAECs [5] = assay: Scratch wound healing assay; assay type: cell-based, bovine; conditions: L-NMMA pretreatment (1 mM or 5 mM, one hour) plus 50 ng/ml SDF-1alpha
Procedure: For detection of cell migration, a wound healing assay was performed as previously described (40). BAECs were grown on 35 mm wells, the monolayer was scratched with a sterile disposable rubber policeman and the edge labeled with a traced line. After injury, the cells were gently washed with normal media without serum. EC migration from the edge of the injured monolayer was quantified by measuring the area between the wound edges before and the recovered area after injury using light microscopy (Eclipse TS100, 4× objective, Nikon) and the computer program ImageJ.
To determine whether eNOS activation is required for SDF-1α-mediated endothelial cell migration, we performed scratch-wound healing and Boyden chamber migration assays in the presence of the NOS-specific inhibitor L-NMMA (19). Confluent BAECs were pretreated for one hour with 1 mM or 5 mM L-NMMA or vehicle prior to each assay. […] Similarly, cell migration in Boyden chambers was induced by SDF-1α (from 8±3 to 86±5 cells per field), but this increase in migration was inhibited by the pre-incubation of BAECs with L-NMMA (FIG. 1D). The involvement of eNOS in SDF-1α-induced endothelial cell migration was confirmed by treatment of cells with siRNAs specific for eNOS. […]

ERK1/2 = ERK1/2 activation, Western blot in BAECs; assay type: cell-based, bovine; conditions: L-NMMA, SDF-1α-treated BAECs
Procedure: (§3) Cells were harvested in lysis buffer (1% Triton X-100, 50 mM Tris, pH 7.4, 150 mM NaCl, 1 mM Na3VO4 and 0.1% protease inhibitor tablet; Roche) and clarified by centrifugation at 16,000 g. Equal amounts of proteins were incubated with a specific antibody overnight at 4° C. with gentle rotation. Protein A/G Plus-agarose beads (Santa Cruz Biotechnology, Santa Cruz, Calif.) were used to pull down the antibody complexes. Afterward, beads were washed with lysis buffer, and immune complexes were separated by SDS-PAGE. Total cell lysates were separated by SDS-PAGE and transferred to nitrocellulose membranes.
Mitogen-activated protein kinases (MAPKs), including ERK1/2 and p38, have been reported to enhance angiogenesis (20, 21). However, the role of JNK in angiogenesis remains controversial, with studies showing both positive and negative outcomes of JNK activation. In order to determine which MAPKs are involved in SDF-1α-induced endothelial cell migration, we screened the activities and expression levels of ERK1/2, p38 and JNK following treatment of BAECs with SDF-1α. […] SDF-1α activated both JNK and ERK1/2 in a dose-dependent manner (FIG. 2B). […] Exogenous JNK1, JNK2 and JNK3 proteins containing Flag or GFP-epitopes were transiently expressed in BAECs and their activities were determined via western blotting with a phospho-JNK antibody following SDF-1α treatment. […]

BAECs [6] = assay: Boyden chamber migration assay; assay type: cell-based, bovine
Procedure: Boyden chamber assays were performed as previously described (40, 41) using a 48-well chamber apparatus (NeuroProbe, Cabin John, Md.). The lower chambers of the apparatus were filled with DMEM with or without SDF-1alpha and then covered with the collagen-coated filter and the upper chambers. Cells pretreated with or without the indicated inhibitors were then added to the upper chambers. After incubating for 6 h at 37° C., cells present on the lower surface were fixed, stained and identified with the 40× objective lens on a Nikon Eclipse TS 100 inverted microscope.
To determine whether eNOS activation is required for SDF-1α-mediated endothelial cell migration, we performed scratch-wound healing and Boyden chamber migration assays in the presence of the NOS-specific inhibitor L-NMMA (19). Confluent BAECs were pretreated for one hour with 1 mM or 5 mM L-NMMA or vehicle prior to each assay. […] Endothelial cells were transfected with 1 of 3 different bovine eNOS-specific siRNAs, or mixture of all three, and 72 hours later cell lysates were examined by western blot analysis for levels of eNOS protein.

JNK3 = assay: JNK activation (phospho-JNK Western blot) in BAECs; assay type: cell-based, bovine; conditions: for SDF-1α-induced JNK phosphorylation in siRNA-transfected cells: BAECs, 50 ng/ml SDF-1alpha for 10 minutes
Procedure: as §3
Mitogen-activated protein kinases (MAPKs), including ERK1/2 and p38, have been reported to enhance angiogenesis (20, 21). However, the role of JNK in angiogenesis remains controversial, with studies showing both positive and negative outcomes of JNK activation. In order to determine which MAPKs are involved in SDF-1α-induced endothelial cell migration, we screened the activities and expression levels of ERK1/2, p38 and JNK following treatment of BAECs with SDF-1α. […] SDF-1α activated both JNK and ERK1/2 in a dose-dependent manner (FIG. 2B). […] Protein and mRNA for all three JNK isoforms, JNK1, JNK2 and JNK3, can be found in BAECs (FIGS. 5, A&B). In order to determine which JNK protein(s) was activated by SDF-1α in these cells we used a previously described assay (22). Exogenous JNK1, JNK2 and JNK3 proteins containing Flag or GFP-epitopes were transiently expressed in BAECs and their activities were determined via western blotting with a phospho-JNK antibody following SDF-1α treatment. […] To confirm the finding that JNK3 is the only JNK entity activated by SDF-1α, we transfected cells with siRNAs for each of the JNK proteins and then tested the effect of each siRNA for the ability to suppress SDF-1α-induced JNK activation. […] Because JNK3 was the only SDF-1α-activated JNK in endothelial cells in our studies (FIG. 2C & FIG. 5, C), we consider the phospho-JNK signals in western blots with anti-phospho-JNK antibody as the signals for activated JNK3.

BAECs [7] = assay: In vitro Matrigel angiogenesis (tube formation) assay; assay type: cell-based, bovine; conditions: siRNA-expressing cells
Procedure: Endothelial cell tube formation was analyzed with the Matrigel-based tube formation assay (40, 41). Chilled 24-well plates were coated with growth factor-reduced Matrigel (Becton Dickinson, San Jose, Calif.) that was polymerized at 37° C. for 30 min. BAECs were transfected with siRNA constructs with the Amaxa Nucleofector electroporation reagent. Three days later, cells were trypsinized, and plated at equal numbers into each Matrigel-coated well. After 18 hours of incubation in the absence or presence of SDF-1alpha, the formation of tubes was photographed (Eclipse, 10× objective, TS100Nikon). Images were quantified with ImageJ.
Endothelial cell migration is a critical step for tube formation during angiogenesis. To test the importance of JNK3 in highly ordered cell assembly processes, we examined the effect of JNK knockdown with siRNAs on the formation of capillary-like tubes in Matrigel. BAECs were transfected with JNK1 siRNA, JNK2 siRNA, JNK3 siRNA or control siRNA. After 72 hours, cells were plated on Matrigel in medium containing 50 ng/ml SDF-1α.

[8] = Myc-MKP7, GSNO 500 μM, 10 minutes

## NCCN(CCN)/[N+]([O-])=N/O [DETA NONOate]
MKP7 [1]; [8]
  S-nitrosylation of MKP7: detected

## O[C@@H](CS)[C@@H](O)CS [DTT]
MKP7 [1]; [8]
  S-nitrosylation of MKP7: blocked

## N[C@@H](CCC(=O)N[C@@H](CSN=O)C(=O)NCC(=O)O)C(=O)O [GSNO, nitrosoglutathione]
MKP7 [2]
  MKP7 phosphatase activity: markedly inhibited
  phosphatase activity of MKP7-WT and MKP7-ΔC: decreased dramatically
MKP7 [3]
  phosphatase activity of MKP7-ΔC (C244S): essentially unchanged
MKP7 [1]
  S-nitrosylation of MKP7: S-nitrosylated
  nitrosylation of MKP7-WT and MKP7-ΔC: strongly nitrosylated
MKP7 [4]
  nitrosylation of MKP7-ΔC (C244S) compared to MKP7-ΔC: markedly attenuated

## CNC(=N)NCCC[C@H](N)C(=O)O [L-NMMA, reference compound]
BAECs [5]
  BAEC migration towards the wounded area: 17.7±2.4%
ERK1/2
  ERK activation: not affected
BAECs [6]; pre-incubation with L-NMMA, 50 ng/ml SDF-1alpha
  SDF-1α-induced increase in migration in Boyden chambers: inhibited
JNK3; 0.5-5 mM L-NMMA, 50 ng/ml SDF-1alpha for 5 minutes
  JNK3 activation induced by SDF-1α: specifically inhibited

## Oc1c2ccccc2c2c3c(cccc13)N=N2 [SP600125]
BAECs [6]; 10 μM SP600125, 50 ng/ml SDF-1alpha
  SDF-1α-mediated endothelial cell migration: 27±3 cells
BAECs [6]; 50 μM SP600125, 50 ng/ml SDF-1alpha
  SDF-1α-mediated endothelial cell migration: 20±2 cells

## N#CC(=C(/N)Sc1ccccc1N)/C(C#N)=C(\N)Sc1ccccc1N [U0126]
BAECs [6]; 20 μM U0126 (data not shown)
  endothelial cell migration induced by SDF-1α: decreased

## [Na+].[Na+].[Na+].[O]=[V]([O-])([O-])[O-] [sodium orthovanadate, reference compound]
JNK3; Na3VO4 10, 100, 500 μM, basal and after 50 ng/ml SDF-1α
  JNK phosphorylation: increased

## JNK1 siRNA: AUAACAAAUCCCUUGCCUGACUGGC (SEQ ID NO:4) (listed as RNA, chemistry not given here)
BAECs [7]; with 50 ng/ml SDF-1α
  tube length: 438±108 μm
BAECs [7]; without SDF-1α
  tube length: 88±23 μm
JNK3
  SDF-1α-induced JNK phosphorylation in siRNA-transfected cells: significantly enhanced

## JNK2 siRNA: AGUUGAGUCU GCCACUUGUACACUG (SEQ ID NO:5) (AGUUGAGUCUGCCACUUGUACACUG; listed as RNA, chemistry not given here)
BAECs [7]; with 50 ng/ml SDF-1α
  tube length: 504±93 μm
BAECs [7]; without SDF-1α
  tube length: 121±61 μm
JNK3
  SDF-1α-induced JNK phosphorylation in siRNA-transfected cells: significantly enhanced
